# Results from US20260325575A1, “THE USE OF BORATE DERIVATIVES IN THE TREATMENT OF NEURODEGENERATIVE DISEASES” (YEDITEPE UNIVERSITESI, priority 2022, published 2026).
# Key:
# [1] = tested on: SOD1 G93A transgenic mice; assay: Rotarod test (motor performance) in SOD1 G93A transgenic mice; assay type: in vivo, mouse (C57BL/6 SOD1 G93A; conditions: 200 mg/kg by gavage every other day for 3 weeks; vs transgenic control (water); 14 rpm, max 180 s; n=8
# Procedure: In the in vivo studies conducted, the SOD1 G93A transgenic mice model, which is one of the most preferred animal models for modeling ALS disease, was used. In the study (n=8); SPT and NaB were administered to the animals every other day by gavage. As a result of the comparison of the motor functions of these transgenic animals that received SPT and NaB throughout the experiment with the motor functions of the transgenic control (water) group, it was observed that SPT increased the performance of the rotarod test by 88.4% in the SOD1 G93A model compared to the control group (P<0.01). […] In the group that received water, it was observed that the findings aggravated over time and the rotarod performance decreased.
# Example 1 Information about the Experimental Animals Used
# Example 2 Experimental Groups
# Example 3 Substance Administration
# SPT or NaB derivatives at 200 mg/kg per mouse were vortexed at high speed and dissolved in the daily drinking water of the mice. […]
# The mice were acclimatized with the rotarod test apparatus for one day before their motor function was tested and their performance was recorded at the end of the second day. Their motor performances were measured three times for a maximum of 180 seconds at a constant speed of 14 rpm, and their longest residence time on the apparatus was recorded. […]
# [2] = tested on: SOD1 G93A transgenic mice; assay: Neuroscoring, phenotypic characteristics of NS1 phase; assay type: in vivo, mouse (C57BL/6 SOD1 G93A
# Procedure: SPT or NaB derivatives at 200 mg/kg per mouse were vortexed at high speed and dissolved in the daily drinking water of the mice. Borate Solutions prepared thus in drinking water were administered to mice by gavage every other day for 3 weeks. The control group received only the same amount of drinking water by gavage.
# In order to observe during the experiment the stages when early and late symptoms of the disease occur, wild-type and transgenic animals were subjected to neuroscoring as described in the study by Hatzipetros et al. In this way, it was aimed to observe whether the administration to the animals caused any difference in the onset, course and severity of ALS symptoms. For this, the table of the disease course is graded with a scoring System as follows: • 1. Neuro Score 0 (NS 0, Pre-symptomatic): When suspended by the tail, the mouse can fully extend its hindlimbs away from the lateral midline to the side in a normal manner and stay in this position for at least two seconds or longer. When the mouse is allowed to walk, normal gait is observed. • 2. NS 1 (First symptoms): When the mouse is suspended by the tail, its hindlimbs cannot fully extend away from the lateral midline, they partially collapse backwards or the hindlimbs are observed to tremble (tremor). Towards the end of the phase, gait disturbances and slow gait (ataxia) begin. The first symptoms usually appear as of day 90. • 3. NS 2 (Partial paralysis, paresis): When the mouse is suspended by the tail, its hindlimbs are partially or completely collapsed, or cannot extend much, there is still joint movement. When the mouse is allowed to walk, it can use its hindlimbs for forward motion, however it is observed that its toes curl backwards at least twice during a 90 cm walk or it can move by dragging its feet. When the mouse is placed on its left or right side, it is able to right itself within 10 seconds. • 4. NS 3 (Paralysis): When the mouse is suspended by the tail, it is observed that there is rigid paralysis in its hindlimbs or minimal joint movement. When the mouse is allowed to walk, it is observed that there is forward motion however it cannot use its hindlimbs. When the mouse is placed on its left or right side, it is observed that it is able to right itself within 10 seconds. • 5. NS 4 (Humane end-point): When the mouse is suspended by the tail, it is observed that there is rigid paralysis in its hindlimbs. When the mouse is allowed to walk, no motion is observed, when the mouse is placed on its left or right side it is observed that it is not able to right itself within 10 seconds, i.e., absence of righting reflex.
# According to this scoring system, if we divide the symptoms observed in animals into phases according to the order of occurrence, 50-80 days after birth can be considered pre-symptomatic. Since as of day 90 the first symptoms start to appear, we can consider this date as the beginning of the early symptomatic phase and also the beginning of neuroscore 1. Although it can vary, this period can last 20-38 days and also covers the neuroscore 2 phase. As of day 120 on average, the process is called late symptomatic. Although it may last a little longer in females, this period lasts 5-10 days on average and neuroscore 3 and 4 phases are also observed during this late symptomatic period
# [3] = tested on: gene expression in brain and spinal cord tissues of transgenic mice; assay: Microarray gene expression and pathway analysis (PANTHER GO) in brain and spinal cord; assay type: in vivo, mouse (C57BL/6 SOD1 G93A; conditions: transgenic animals, n=3
# Procedure: FIG. 2. is a representation of the gene expressions of the other groups compared to the transgenic control group in the form of a heat map, as a result of the microarray analysis performed on the spinal cord materials of the transgenic and wild type experimental groups (n=3 per group) that received NaB, SPT and water only. (Statistical differences between groups were compared using Volcano plot analysis (two-way ANOVA; P values<0.05) and fold change ±2 and more were considered statistically significant).
# FIG. 3. is a representation of some of the pathways in which SPT and NaB derivatives are found to be effective as a result of the pathway analysis (PANTHER Gene Ontology (GO) Classification and Pathway System) and of the number of genes located in these pathways (Total number of genes: 2677, total number of hits: 443).
# In addition to measurements of motor function, in order to investigate whether derivatives induce any gene-based changes in the Central nervous system, brain and spinal cord materials were collected from wild type and transgenic control (water), NaB and SPT group animals with n=3 and RNA was isolated from these materials and microarray analysis was performed. […]
# [4] = Cytotoxicity analysis (MTS); assay type: cell-based, human; conditions: human, differentiated sh-sy5y cells, neuronal cells, read-out: non-toxic concentration
# Procedure: (§1) SHSY5Y cells stocked in cryo tubes at −80° C. or liquid nitrogen were kept in a water bath at 37° C. until completely solved. The solved cells were transferred to 15 ml Falcon tubes containing 5 ml cell medium and centrifuged at 300×g for 5 minutes. After centrifugation, the medium on the cells was removed and the cells were solved with 1 ml of fresh medium using a pipette. Then, the cells were transferred to cell flask containing 12 ml DMEM/F12 medium and incubated at 37° C. for 24±2 hours in an incubator containing 5% CO2.
# (§2) The next day, the medium on the adherent cells was changed and incubation was continued until the cells formed 85%-90% monolayer […]. The medium of the monolayered cells was removed and the cells were washed with 5 ml PBS. […]
# (§3) After the incubation period was completed, the medium on the cells was removed and the cells were washed again with 1 ml PBS. […] At the end of the tenth day, neuronal cells were ready.
# (§4) After the incubation period was completed (24 hours), the medium on the cells was removed and replaced with 10% MTS solution prepared in the cell medium. […] After incubation, absorbance measurements were made using an ELISA plate reader at 490 nm. From the absorbance values obtained, cell viability was calculated according to the formula ((Mean Cell Abs./Mid. Negative Con. Abs.)*100). […]
# [5] = tested on: Amyloid beta plaques in SHSY5Y cells differentiated into cholinergic neurons; assay: Amyloid beta plaques in Alzheimer's model, immunocytochemistry (fluorescence); assay type: cell-based, human
# Procedure: SH-SY5Y cells were seeded in 6-well plates with 250×10^5 cells in each well and incubated with medium containing DMEM/F12, 10% FBS, 1% PSA at 37° C. in 5% CO2 for 24 hours. Then, the medium on the cells was removed and each well was washed with 1 ml PBS. Then, 2 ml of differentiation medium (1% FBS, 10 μM/ml RA) was added to each cell well and cells were incubated for 72 hours.
# After the incubation period was completed, the medium on the cells was removed and the cells were washed again with 1 ml PBS. Afterwards, 2 ml of differentiation medium (1% FBS, 10 μM/ml RA, 10 μg/ml BDNF) was added to the cells and incubated for 72 hours. The same procedure was repeated on the seventh day. At the end of the tenth day, neuronal cells were ready.
# Obtaining Alzheimer's Model and Evaluation of Active Substances
# Immunocytochemistry Analysis
# The old media on the incubated cells were removed and the cells were washed three times with 1 ml PBS.
# Firstly, cells were fixed with 1 ml of 2% paraformaldehyde for 30 min at room temperature and then washed three times with PBS. […]
# After incubation, the cells were washed three times with PBS. […] Finally, the cells were washed three times with PBS and measurements were taken with a fluorescence microscope (Zeiss).
# The data obtained from the immunocytochemistry study were analysed using Image J (National Institutes of Health) and MS Excel.
# [6] = tested on: ALS patients; conditions: cited from earlier work
# [7] = tested on: SHSY5Y cells differentiated into neuron cells; assay: Cytotoxicity analysis (MTS); assay type: cell-based, human; conditions: 24 hours, neuronal cells
# Procedure: as §1, §2, §3, §4
# [8] = day 90, 200 mg/kg by gavage every other day, tg mice
# [9] = day 110, 200 mg/kg by gavage every other day, tg mice
molecule,measurement,setting,value
"O.O.O.O.O.O=BO[B-](OB=O)(OB=O)OB=O.[Na+] [NaB, sodium; tetrakis(oxoboranyloxy)boranuide; pentahydrate]",increase in rotarod performance compared to the control group,[1],62.45%
same,"classical symptoms of stage 1 (NS1) at the end of the experiment (hindlimb retraction, tremor and ataxia)","[2]; animals still in NS1 at end of experiment, vs control group",considerably weaker than those in the control group
same,"s3 (ataxia), day 80 (t = 0)","[2]; day 80, before administration, tg mice",very mild
same,"s1 (hindlimb retraction), day 90 (onset of the disease-NS1)",[2]; [8],mild
same,"s2 (tremor), day 90 (onset of the disease-NS1)",[2]; [8],mild
same,"s3 (ataxia), day 90 (onset of the disease-NS1)",[2]; [8],mild
same,"s1 (hindlimb retraction), day 110 (experiment endpoint)",[2]; [9],moderate
same,"s2 (tremor), day 110 (experiment endpoint)",[2]; [9],moderate
same,"s3 (ataxia), day 110 (experiment endpoint)",[2]; [9],moderate
same,gene expression compared to transgenic control / wild type,[3],"reversed the gene expression at a statistically significant rate, approximating it to the gene expression level in wild type animals"
same,MNTC at 24 h,[4],5 µg/mL
same,cells with Amyloid beta plaques,"[5]; 24 hours, substance alone (ONaB or OAβ group)",0%
same,inhibition at 5 µg/mL,"[5]; Homo sapiens, SH-SY5Y, 24 h, read-out: plaques dissolved in Aβ+NaB group compared to the OAβ group",92.4%
Nc1nc2ccc(OC(F)(F)F)cc2s1 [Riluzole],extension of patient's life span,[6],approximately a few months
"Amyloid Beta: Amyloid Beta (Aβ), applied to differentiated SHSY5Y cells to create an Alzheimer's model [reference compound]",non-toxic concentration,[7],4 µg/mL
